The values below come from US20230192705A1, “SHP2 INHIBITORS, COMPOSITIONS AND USES THEREOF” (Betta Pharmaceuticals Co., Ltd, priority 2020, published 2023).

The experiment concerns the target T1, SHP2 (Homo sapiens, UniProt Q06124).
T1 sequence (Q06124 1-593): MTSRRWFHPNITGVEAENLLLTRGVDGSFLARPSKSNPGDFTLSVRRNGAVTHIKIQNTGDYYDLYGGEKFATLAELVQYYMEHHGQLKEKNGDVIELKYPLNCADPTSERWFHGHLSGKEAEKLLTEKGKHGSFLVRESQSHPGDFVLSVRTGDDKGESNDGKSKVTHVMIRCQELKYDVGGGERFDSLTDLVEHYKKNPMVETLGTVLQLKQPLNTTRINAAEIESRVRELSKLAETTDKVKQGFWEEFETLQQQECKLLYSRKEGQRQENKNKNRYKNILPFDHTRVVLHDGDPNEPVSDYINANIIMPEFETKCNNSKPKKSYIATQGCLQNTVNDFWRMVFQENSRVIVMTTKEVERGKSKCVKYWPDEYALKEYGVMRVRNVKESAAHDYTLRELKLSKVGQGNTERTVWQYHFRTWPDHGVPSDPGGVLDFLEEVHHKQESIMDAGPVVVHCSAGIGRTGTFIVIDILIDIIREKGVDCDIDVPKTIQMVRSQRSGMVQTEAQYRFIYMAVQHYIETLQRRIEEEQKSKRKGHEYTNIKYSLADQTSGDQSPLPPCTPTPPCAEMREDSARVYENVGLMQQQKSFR
The experiment is described as follows: SHP2 allosteric inhibitor enzyme activity assay (DiFMUP fluorescence). It is filed as biochemical. Particulars: class symbols. The gist of the method: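 SHP2 activated by 0.5 μM IRS1_pY1172(dPEG8)pY1222 peptide, 0.2 ng enzyme per well, 1 h at room temperature with compound (1 μM top, 3-fold series), then DiFMUP substrate 1 h. Buffer: 60 mM HEPES, 75 mM NaCl, 75 mM KCl, 0.05% BRIJ-35, 1 mM EDTA, 5 mM DTT. Fluorescence ex 340/em 450 nm; IC50 by variable-slope fit.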
Turning to `N[C@@H]1c2ccccc2CC12CCN(c1nc3[nH]nc(C4(c5ccc[s+]5[O-])CC4)c3c(=O)[nH]1)CC2` (stereo partly drawn) [Example 242, 6-((S)-1-amino-1,3-dihydrospiro[indene-2,4′-piperidin]-1′-yl)-3-(1-(1-oxidothiophen-2-yl)cyclopropyl)-1,5-dihydro-4H-pyrazolo[3,4-d]pyrimidin-4-one], the IC50 is at most 20 nM.

With `N[C@@H]1c2ccccc2CC12CCN(c1nc3[nH]nc(C4(c5ncco5)CC4)c3c(=O)[nH]1)CC2` [Example 243, (S)-6-(1-amino-1,3-dihydrospiro[indene-2,4′-piperidin]-1′-yl)-3-(1-(oxazol-2-yl)cyclopropyl)-1,5-dihydro-4H-pyrazolo[3,4-d]pyrimidin-4-one], the IC50 was at most 20 nM.

Take `Cc1cnc(C2(c3n[nH]c4nc(N5CCC6(CC5)Cc5ccccc5[C@H]6N)[nH]c(=O)c34)CC2)o1` [Example 244, (S)-6-(1-amino-1,3-dihydrospiro[indene-2,4′-piperidin]-1′-yl)-3-(1-(5-methyloxazol-2-yl)cyclopropyl)-1,5-dihydro-4H-pyrazolo[3,4-d]pyrimidin-4-one]: the IC50 is at most 20 nM.

As to `N[C@@H]1c2ccccc2CC12CCN(c1nc3[nH]nc(C4(c5ncccn5)CC4)c3c(=O)[nH]1)CC2` [Example 245, (S)-6-(1-amino-1,3-dihydrospiro[indene-2,4′-piperidin]-1′-yl)-3-(1-(pyrimidin-2-yl)cyclopropyl)-1,5-dihydro-4H-pyrazolo[3,4-d]pyrimidin-4-one], the IC50 was at most 20 nM.

The compound `N[C@@H]1c2ccccc2CC12CCN(c1nc3[nH]nc(C4(c5nn[nH]n5)CC4)c3c(=O)[nH]1)CC2` [Example 246, (S)-3-(1-(2H-tetrazol-5-yl)cyclopropyl)-6-(1-amino-1,3-dihydrospiro[indene-2,4′-piperidin]-1′-yl)-1,5-dihydro-4H-pyrazolo[3,4-d]pyrimidin-4-one] returned an IC50 of at most 20 nM.

Take `N[C@@H]1c2ccccc2CC12CCN(c1nc3[nH]nc(C4(c5cccnc5)CC4)c3c(=O)[nH]1)CC2` [Example 247, (S)-6-(1-amino-1,3-dihydrospiro[indene-2,4′-piperidin]-1′-yl)-3-(1-(pyridin-3-yl)cyclopropyl)-1,5-dihydro-4H-pyrazolo[3,4-d]pyrimidin-4-one]: the IC50 was at most 20 nM.

Compound `Cc1cccc(C2(c3n[nH]c4nc(N5CCC6(CC5)Cc5ccccc5[C@H]6N)[nH]c(=O)c34)CC2)n1` [Example 248, (S)-6-(1-amino-1,3-dihydrospiro[indene-2,4′-piperidin]-1′-yl)-3-(1-(6-methylpyridin-2-yl)cyclopropyl)-1,5-dihydro-4H-pyrazolo[3,4-d]pyrimidin-4-one] yielded an IC50 of at most 20 nM.

As to `N[C@@H]1c2ccccc2CC12CCN(c1nc3[nH]nc(C4(c5coc6ccccc56)CC4)c3c(=O)[nH]1)CC2` [Example 250, (S)-6-(1-amino-1,3-dihydrospiro[indene-2,4′-piperidin]-1′-yl)-3-(1-(benzofuran-3-yl)cyclopropyl)-1,5-dihydro-4H-pyrazolo[3,4-d]pyrimidin-4-one], the IC50 is at most 20 nM.

As for `N[C@@H]1c2ccccc2CC12CCN(c1nc3[nH]nc(C4(c5nc6ccccc6[nH]5)CC4)c3c(=O)[nH]1)CC2` [Example 251, (S)-3-(1-(1H-benzo[d]imidazol-2-yl)cyclopropyl)-6-(1-amino-1,3-dihydrospiro[indene-2,4′-piperidin]-1′-yl)-1,5-dihydro-4H-pyrazolo[3,4-d]pyrimidin-4-one], the IC50 is 20 to 60 nM.

Regarding `N[C@@H]1c2ccccc2CC12CCN(c1nc3[nH]nc(C4(c5c[nH]nn5)CC4)c3c(=O)[nH]1)CC2` [Example 253, (S)-3-(1-(1H-1,2,3-triazol-4-yl)cyclopropyl)-6-(1-amino-1,3-dihydrospiro[indene-2,4′-piperidin]-1′-yl)-1,5-dihydro-4H-pyrazolo[3,4-d]pyrimidin-4-one], the IC50 was at most 20 nM.

With `N[C@@H]1c2ccccc2CC12CCN(c1nc3[nH]nc(C4(c5ccco5)CC4)c3c(=O)[nH]1)CC2` [Example 256, (S)-6-(1-amino-1,3-dihydrospiro[indene-2,4′-piperidin]-1′-yl)-3-(1-(furan-2-yl)cyclopropyl)-1,5-dihydro-4H-pyrazolo[3,4-d]pyrimidin-4-one], the IC50 is at most 20 nM.

`C[C@@H]1OCC2(CCN(c3cnc(C4(c5ccccc5)CC4)cn3)CC2)[C@@H]1N` [Example 258, (3S,4S)-3-methyl-8-(5-(1-phenylcyclopropyl)pyrazin-2-yl)-2-oxa-8-azaspiro[4.5]decan-4-amine]: the IC50 is above 60 nM.

`C[C@@H]1OCC2(CCN(c3ncc(C4(c5ccccc5)CC4)nc3C(N)=O)CC2)[C@@H]1N` [Example 259, 3-((3S,4S)-4-amino-3-methyl-2-oxa-8-azaspiro[4.5]decan-8-yl)-6-(1-phenylcyclopropyl)pyrazine-2-carboxamide] yielded an IC50 above 60 nM.

The compound `C[C@@H]1OCC2(CCN(c3ncc(C4(c5ccccc5)CC4)nc3CO)CC2)[C@@H]1N` [Example 260, (3-((3S,4S)-4-amino-3-methyl-2-oxa-8-azaspiro[4.5]decan-8-yl)-6-(1-phenylcyclopropyl)pyrazin-2-yl)methanol] came in with an IC50 above 60 nM.

Take `Cc1nc(N2CCC3(CC2)CO[C@@H](C)[C@H]3N)c(CO)nc1C1(c2ccccc2)CC1` [Example 261, (3-((3S,4S)-4-amino-3-methyl-2-oxa-8-azaspiro[4.5]decan-8-yl)-5-methyl-6-(1-phenylcyclopropyl)pyrazin-2-yl)methanol]: the IC50 was above 60 nM.

On to `C[C@@H]1OCC2(CCN(c3ncc(C4(c5ccccc5)CC4)c(=O)[nH]3)CC2)[C@@H]1N` [Example 262, 2-((3S,4S)-4-amino-3-methyl-2-oxa-8-azaspiro[4.5]decan-8-yl)-5-(1-phenylcyclopropyl)pyrimidin-4(3H)-one], for which the IC50 was above 60 nM.

Turning to `C[C@@H]1OCC2(CCN(c3ncc(C4(c5ccccc5)CC4)c(=O)n3C)CC2)[C@@H]1N` [Example 263, 2-((3S,4S)-4-amino-3-methyl-2-oxa-8-azaspiro[4.5]decan-8-yl)-3-methyl-5-(1-phenylcyclopropyl)pyrimidin-4(3H)-one], the IC50 is above 60 nM.

`C[C@@H]1OCC2(CCN(c3nc(N)c(C4(c5ccccc5)CC4)c(=O)n3C)CC2)[C@@H]1N` [Example 264, 6-amino-2-((3S,4S)-4-amino-3-methyl-2-oxa-8-azaspiro[4.5]decan-8-yl)-3-methyl-5-(1-phenylcyclopropyl)pyrimidin-4(3H)-one] displayed an IC50 above 60 nM.

`C[C@@H]1OCC2(CCN(C3=NC(N)=C(C4(c5ccccc5)CC4)C4=NCCCN43)CC2)[C@@H]1N` [Example 265, (3S,4S)-8-(8-amino-9-(1-phenylcyclopropyl)-3,4-dihydro-2H-pyrimido[1,6-a]pyrimidin-6-yl)-3-methyl-2-oxa-8-azaspiro[4.5]decan-4-amine] registered an IC50 above 60 nM.

Regarding `C[C@@H]1OCC2(CCN(C3=NC4=NCCN4C(N)=C3C3(c4ccccc4)CC3)CC2)[C@@H]1N` [Example 266, (3S,4S)-8-(5-amino-6-(1-phenylcyclopropyl)-2,3-dihydroimidazo[1,2-a]pyrimidin-7-yl)-3-methyl-2-oxa-8-azaspiro[4.5]decan-4-amine], the concentration for half-maximal inhibition (IC50) is above 60 nM.

In the case of `C[C@@H]1OCC2(CCN(c3ncc4c(C5(c6ccccc6)CC5)n[nH]c4n3)CC2)[C@@H]1N` [Example 267, (3S,4S)-3-methyl-8-(3-(1-phenylcyclopropyl)-1H-pyrazolo[3,4-d]pyrimidin-6-yl)-2-oxa-8-azaspiro[4.5]decan-4-amine], the IC50 lay in the range of 20 to 60 nM.

Consider `C[C@@H]1OCC2(CCN(c3cnc4c(C5(c6ccsc6)CC5)n[nH]c4n3)CC2)[C@@H]1N` [Example 268, (3S,4S)-3-methyl-8-(3-(1-(thiophen-3-yl)cyclopropyl)-1H-pyrazolo[3,4-b]pyrazin-6-yl)-2-oxa-8-azaspiro[4.5]decan-4-amine], for which the IC50 fell in the range of 20 to 60 nM.

`C[C@@H]1OCC2(CCN(c3cnc4c(C5(c6ccccc6)CC5)c[nH]c4n3)CC2)[C@@H]1N` [Example 269, (3S,4S)-3-methyl-8-(7-(1-phenylcyclopropyl)-5H-pyrrolo[2,3-b]pyrazin-3-yl)-2-oxa-8-azaspiro[4.5]decan-4-amine] gave an IC50 above 60 nM.

`C[C@@H]1OCC2(CCN(c3nc4[nH]nc(C5(c6ccccc6)CC5)c4c(=O)[nH]3)CC2)[C@@H]1N` [Example 270, 6-((3S,4S)-4-amino-3-methyl-2-oxa-8-azaspiro[4.5]decan-8-yl)-3-(1-phenylcyclopropyl)-1,5-dihydro-4H-pyrazolo[3,4-d]pyrimidin-4-one] displayed an IC50 of 20 to 60 nM.

`N[C@@H]1COCC12CCN(c1nc3[nH]nc(C4(c5ccccc5)CC4)c3c(=O)[nH]1)CC2` [Example 271, (S)-6-(4-amino-2-oxa-8-azaspiro[4.5]decan-8-yl)-3-(1-phenylcyclopropyl)-1,5-dihydro-4H-pyrazolo[3,4-d]pyrimidin-4-one]: the IC50 fell in the range of 20 to 60 nM.
